Measurements from ChEMBL document CHEMBL1201862, “PubChem BioAssay data set” (2004).
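1) Cells in 96-well plates. 2) Compound, 48 h, 5 concentrations. 3) Linear interpolation between surrounding doses. 4) Unreached endpoint = highest concentration. GI50: concentration for 50% inhibition of growth.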 Activity calls are given as the source filed them. Cut-off read from the data, not from the text of the source: active = GI50 up to about 1.1 µM and inactive = higher.

How the values were obtained:
Assay in all cases: NCI-60 cell line screen, 48 h
786-0 = test system: 786-0
A498 = test system: A498
CAKI-1 = test system: CAKI-1
EKVX = test system: EKVX
HCC 2998 = test system: HCC 2998
HOP-62 = test system: HOP-62
HT-29 = test system: HT-29
LOX IMVI = test system: LOX IMVI
MDA-MB-435 = test system: MDA-MB-435
Malme-3M = test system: Malme-3M
NCI-H226 = test system: NCI-H226
NCI-H23 = test system: NCI-H23
NCI/ADR-RES = test system: NCI/ADR-RES
OVCAR-3 = test system: OVCAR-3
OVCAR-4 = test system: OVCAR-4
SK-OV-3 = test system: SK-OV-3
SNB-19 = test system: SNB-19
U-251 = test system: U-251
UACC-62 = test system: UACC-62
DLD-1 = test system: DLD-1

Row | SMILES | GI50 (786-0) | GI50 (A498) | GI50 (CAKI-1) | GI50 (EKVX) | GI50 (HCC 2998) | GI50 (HOP-62) | GI50 (HT-29) | GI50 (LOX IMVI) | GI50 (MDA-MB-435) | GI50 (Malme-3M) | GI50 (NCI-H226) | GI50 (NCI-H23) | GI50 (NCI/ADR-RES) | GI50 (OVCAR-3) | GI50 (OVCAR-4) | GI50 (SK-OV-3) | GI50 (SNB-19) | GI50 (U-251) | GI50 (UACC-62) | GI50 (DLD-1)
1 | Cc1ccc2ccccc2c1CSc1nc(N)nc2c1ncn2CC(C)C | 21.4 µM (inactive) | 26.9 µM (inactive) | 17 µM (inactive) | 13.6 µM (inactive) | 19.3 µM (inactive) | 28.9 µM (inactive) | 9.14 µM (inactive) | 34.8 µM (inactive) | 10.3 µM (inactive) | 9.31 µM (inactive) | 7.82 µM (inactive) | 24.4 µM (inactive) | 21.8 µM (inactive) | 14.4 µM (inactive) | 11.1 µM (inactive) | 30.5 µM (inactive) | 48.3 µM (inactive) | 18.2 µM (inactive) | 26.3 µM (inactive) | –
2 | COc1ccccc1C1SCC(=O)N1c1ccc(-c2ccc(-n3c(-c4ccccc4)nc4ccccc4c3=O)cc2)cc1 (stereo not drawn) | > 100 µM (inactive) | > 100 µM (inactive) | > 100 µM (inactive) | > 100 µM (inactive) | > 100 µM (inactive) | > 100 µM (inactive) | > 100 µM (inactive) | > 100 µM (inactive) | > 100 µM (inactive) | > 100 µM (inactive) | > 100 µM (inactive) | > 100 µM (inactive) | > 100 µM (inactive) | > 100 µM (inactive) | > 10 µM (inactive) | > 100 µM (inactive) | > 100 µM (inactive) | > 100 µM (inactive) | 84.3 µM (inactive) | –
3 | CCOC(=O)C(CCSC)(CCSC)C(=O)OCC | > 100 µM (inactive) | > 100 µM (inactive) | > 100 µM (inactive) | > 100 µM (inactive) | > 100 µM (inactive) | > 100 µM (inactive) | > 100 µM (inactive) | > 100 µM (inactive) | > 100 µM (inactive) | > 100 µM (inactive) | > 100 µM (inactive) | > 100 µM (inactive) | > 100 µM (inactive) | > 100 µM (inactive) | > 100 µM (inactive) | 27.7 µM (inactive) | > 100 µM (inactive) | > 100 µM (inactive) | 18.7 µM (inactive) | –
4 | CC1(C)CCCCCCCCCC(C)(CCCCCCCCCCCCO)C1=O (stereo not drawn) | 18.6 µM (inactive) | 18.7 µM (inactive) | 20.7 µM (inactive) | 19.3 µM (inactive) | 0.655 µM (active) | 22.5 µM (inactive) | 16.9 µM (inactive) | 17.6 µM (inactive) | 17.7 µM (inactive) | 16.4 µM (inactive) | 9.84 µM (inactive) | 18.7 µM (inactive) | 18.5 µM (inactive) | 15.6 µM (inactive) | 17.1 µM (inactive) | 18.8 µM (inactive) | 13 µM (inactive) | 17.8 µM (inactive) | 18.3 µM (inactive) | –
5 | CC(C)(C)C1CCC2c3c([nH]c4ccccc34)C3C(=O)N(c4cccc([N+](=O)[O-])c4)C(=O)C3C2C1 (stereo not drawn) | 17.4 µM (inactive) | 41.2 µM (inactive) | 19.6 µM (inactive) | 22.4 µM (inactive) | 27.7 µM (inactive) | 29.6 µM (inactive) | 17.7 µM (inactive) | 17.8 µM (inactive) | 16.1 µM (inactive) | 23.2 µM (inactive) | 25.4 µM (inactive) | 15.5 µM (inactive) | 27.1 µM (inactive) | 35.6 µM (inactive) | 25.5 µM (inactive) | > 100 µM (inactive) | 55.8 µM (inactive) | > 100 µM (inactive) | 23.4 µM (inactive) | –
6 | CCC(c1ccccc1)c1cc(C(C)(C)C)cc(C(C)(C)C)c1O (stereo not drawn) | 15.6 µM (inactive) | 19.7 µM (inactive) | 16.2 µM (inactive) | 17.8 µM (inactive) | 15.8 µM (inactive) | 16.2 µM (inactive) | 14.9 µM (inactive) | 18 µM (inactive) | 18.2 µM (inactive) | 13.9 µM (inactive) | 18.9 µM (inactive) | 17.2 µM (inactive) | 15.4 µM (inactive) | 14.2 µM (inactive) | 15.8 µM (inactive) | 14.9 µM (inactive) | 18.3 µM (inactive) | 17.7 µM (inactive) | 18 µM (inactive) | –
7 | CC(C)(CCCCC(C)(C)NCC1COc2ccccc2O1)NCC1COc2ccccc2O1 (stereo not drawn) | 3.25 µM (inactive) | > 10 µM (inactive) | > 10 µM (inactive) | > 10 µM (inactive) | 2.42 µM (inactive) | > 10 µM (inactive) | 2.47 µM (inactive) | 3.33 µM (inactive) | 1.81 µM (inactive) | 3.15 µM (inactive) | > 10 µM (inactive) | > 10 µM (inactive) | > 10 µM (inactive) | > 10 µM (inactive) | > 10 µM (inactive) | > 10 µM (inactive) | > 10 µM (inactive) | 4.47 µM (inactive) | 3.43 µM (inactive) | –
8 | Clc1cccc(C2SCc3nc4ccccc4n32)c1 (stereo not drawn) | > 10 µM (inactive) | – | 27 µM (inactive) | 17.5 µM (inactive) | – | 20 µM (inactive) | 23.7 µM (inactive) | 15.2 µM (inactive) | – | 22 µM (inactive) | 12.8 µM (inactive) | 18.3 µM (inactive) | – | 14.4 µM (inactive) | 27 µM (inactive) | 21.6 µM (inactive) | – | 16 µM (inactive) | 13.8 µM (inactive) | 15.8 µM (inactive)
9 | COc1ccc(/C=C(\C(=C/c2ccc(OC)cc2)[N+](=O)[O-])[N+](=O)[O-])cc1 | 2.04 µM (inactive) | 30.3 µM (inactive) | 3.18 µM (inactive) | 8.71 µM (inactive) | 15.5 µM (inactive) | 5.47 µM (inactive) | 3.39 µM (inactive) | 2.05 µM (inactive) | 3.4 µM (inactive) | 3.34 µM (inactive) | 3.97 µM (inactive) | 4.46 µM (inactive) | 1.93 µM (inactive) | 12.8 µM (inactive) | 12.8 µM (inactive) | 16.6 µM (inactive) | 10.1 µM (inactive) | 2.58 µM (inactive) | 2.91 µM (inactive) | –
10 | COCn1cnc2c(=O)n(-c3ccc(C)cc3)c(=S)n(-c3ccc(C)cc3)c21 | > 100 µM (inactive) | > 100 µM (inactive) | > 100 µM (inactive) | > 100 µM (inactive) | > 100 µM (inactive) | > 100 µM (inactive) | > 100 µM (inactive) | > 100 µM (inactive) | > 100 µM (inactive) | > 100 µM (inactive) | > 100 µM (inactive) | > 100 µM (inactive) | > 100 µM (inactive) | > 100 µM (inactive) | > 100 µM (inactive) | > 100 µM (inactive) | > 100 µM (inactive) | > 100 µM (inactive) | > 100 µM (inactive) | –
11 | CC1(C)CNC(c2ccc3c(c2)Cc2cc(C4=NC(C)(C)CN4)ccc2-3)=N1 | 49.8 µM (inactive) | 77.8 µM (inactive) | > 100 µM (inactive) | 60 µM (inactive) | 26.2 µM (inactive) | 33.5 µM (inactive) | 32.1 µM (inactive) | 37 µM (inactive) | 32.8 µM (inactive) | 24.7 µM (inactive) | 49.4 µM (inactive) | 35.1 µM (inactive) | > 100 µM (inactive) | 35.7 µM (inactive) | 32.9 µM (inactive) | 44.5 µM (inactive) | 35.1 µM (inactive) | 22 µM (inactive) | 25.3 µM (inactive) | –
12 | Oc1nc2cc(Cl)ccc2nc1/C(=N\Nc1ccccc1)C(O)c1ccc(Cl)c(Cl)c1 (stereo not drawn) | > 100 µM (inactive) | – | – | > 100 µM (inactive) | > 100 µM (inactive) | > 100 µM (inactive) | > 100 µM (inactive) | > 100 µM (inactive) | – | > 100 µM (inactive) | > 100 µM (inactive) | > 100 µM (inactive) | – | > 100 µM (inactive) | > 100 µM (inactive) | > 100 µM (inactive) | > 100 µM (inactive) | > 100 µM (inactive) | > 100 µM (inactive) | > 100 µM (inactive)
13 | CSc1c(C#N)c(N)nc2c(/N=N\c3ccc(Br)cc3)c(N)nn12 | 6.17 µM (inactive) | 24 µM (inactive) | 12.6 µM (inactive) | 7.78 µM (inactive) | 8.87 µM (inactive) | 11.4 µM (inactive) | 9.53 µM (inactive) | 1.96 µM (inactive) | 9.66 µM (inactive) | 8.69 µM (inactive) | 21.5 µM (inactive) | 6.25 µM (inactive) | 17.7 µM (inactive) | 2.95 µM (inactive) | 7.21 µM (inactive) | 21.2 µM (inactive) | 28.4 µM (inactive) | 6.58 µM (inactive) | 7.26 µM (inactive) | –
14 | CC(C)Sc1nc(C#N)cc2c1CCCC2 | 54 µM (inactive) | 37.1 µM (inactive) | > 100 µM (inactive) | 49.4 µM (inactive) | 74.8 µM (inactive) | 85.7 µM (inactive) | > 100 µM (inactive) | 25.4 µM (inactive) | 47 µM (inactive) | 36.1 µM (inactive) | 40.6 µM (inactive) | 58.9 µM (inactive) | 39.2 µM (inactive) | 30.3 µM (inactive) | 53.1 µM (inactive) | 72.9 µM (inactive) | > 100 µM (inactive) | 46.5 µM (inactive) | 91.8 µM (inactive) | –
15 | COc1ccccc1-c1cc(=O)c2ccc(OC)c(OC)c2o1 | 89.1 µM (inactive) | 37.8 µM (inactive) | > 100 µM (inactive) | 58.7 µM (inactive) | 52.8 µM (inactive) | > 100 µM (inactive) | 34.3 µM (inactive) | 33.1 µM (inactive) | 46 µM (inactive) | 92.5 µM (inactive) | > 100 µM (inactive) | > 100 µM (inactive) | 26.4 µM (inactive) | 31.6 µM (inactive) | 38.4 µM (inactive) | 66.7 µM (inactive) | 82.2 µM (inactive) | 46.1 µM (inactive) | 51.5 µM (inactive) | –
